{"source": "patent US20250161310A1", "about": "“PHARMACEUTICAL COMBINATIONS FOR USE IN THE TREATMENT OF NEOPLASTIC DISEASES” (priority 2022, published 2025)", "key": {"SKOV-3 s.c. xenografts": {"tested_on": "SKOV-3 s.c. xenografts", "format": "in vivo", "conditions": "day 23; monotherapy: Formula (I) 7 mg/kg iv 2qw; Carboplatin 60 mg/kg iv qw", "description": "The anti-tumor activity of the compound of formula (I) in combination with carboplatin was evaluated in an ovarian cancer model, using human SKOV-3 cells grown as a solid tumor xenograft subcutaneously (s.c.) in nude mice.\nThe maximum tolerated dose (MTD) of the compound of formula (I) in combination with an optimal dose of carboplatin was defined in non-tumor bearing BALB/c nude mice in the experiments described above. […] Thus, in this study, using a human ovarian cell line derived xenograft (CDX) model, that schedule was applied and compared directly with the same order of administration with a 1 hr or 24 hr gap between compounds. In addition, the twice-weekly schedule was compared with a weekly schedule of 7 mg/kg BAL0891 (a weekly dose well below the MTD for compound of formula (I) monotherapy) using a 4 hr gap. Treatments continued until day 24 and tumor volumes and body weight were monitored until day 51."}, "BR1282 TNBC PDX tumor [1]": {"tested_on": "BR1282 TNBC PDX tumor", "experiment": "first PDX combination study (carboplatin first), BR1282", "description": "In a first PDX study, female BALB/c nude mice (CrownBio) of at least 20 g body weight were subcutaneously (s.c.) inoculated in the right flank with tumor fragments (3*3*3 mm) from stock mice bearing the patient-derived xenograft (PDX) triple negative breast cancer (TNBC) tumor, BR1282. Randomization into 5 different treatment groups (8 mice per group) was made when the mean tumor size was 150-200 mm^3. Mice were dosed intravenously (i.v.) twice weekly (2qw) with the compound of formula (I) (7 mg/kg, i.v., 5 mL/kg) or once weekly (qw) carboplatin (60 mg/kg, i.v., 10 mL/kg) or the combination of these doses, in which the compound of formula (I) was administered after carboplatin using either a 4 h or a 24 h gap, when both compounds were administered on the same day/consecutive days. The fifth group received both vehicles using the time interval of 4 h and all groups were dosed twice via the tail vein. Dosing was delayed by 1 day in any mice showing transient body weight loss of >10% at any time point.\n(§1) Carboplatin was purchased from Qilu Pharmaceutical Co. Ltd. as a solution (10 mg/mL in 5% (w/v) glucose in pure water). The compound of formula (I) was supplied as a powder by Basilea Pharmaceutica International Ltd. and was prepared freshly as a solution in Ethanol:PEG400:Citric acid 20 mM, at a ratio of 1:1:8 and at a final pH of 3.7, for immediate administration.\n(§2) Body weights and tumor volumes were determined at least twice per week, the latter by measuring two dimensions with calipers and applying the formula “V=(L×W^2)/2”, where V is the tumor volume, and L and W are the tumor length and width re-spectively. […] Mice were also culled if the BWL was determined to be >15% for 3 consecutive days. Any mice with >10% BWL, automatically were dosed on one of the following days, as soon as the BWL returned to <10%. All animal protocols were reviewed and approved by the relevant local committees in China, where the studies were performed.\n(§3) The statistical significance of efficacy were determined in two different ways using a) the endpoint on day 10 or day 14 depending on the study when it was necessary to cull the vehicle group because of tumor volume exceeding 1500 mm^3, and b) at the endpoint of day 31 in the first study when exponential curve fits were applied to estimate the rates of tumor growth in the different groups. The degree of an effect was quantified by the delta (A) treated/control ratio (ΔT/C) and the statistical significance of the effect was determined by a one-way analysis of variance (1W-ANOVA) with Holms-Sidak applied post-hoc for multiple determinations, where a p-value of <0.05 was considered statistically significant. In addition, an assessment of the combination effect was made based upon the Clarkes Combination Index (CCI), where the CCI=ΔT/CAB−(ΔT/CA*ΔT/CB) in which A and B are two different compounds and AB the combination thereof, where CCI<−0.1 indicates synergy (or a positive interaction), +0.1 (antagonism, or a negative interaction) and between −0.1 and +0.1 indicates additivity (no interaction); see O'Reilly et al. Anti Cancer Drugs 2011; 22:58-78."}, "BR1282 TNBC PDX tumor [2]": {"tested_on": "BR1282 TNBC PDX tumor", "experiment": "second PDX combination study (compound of formula (I) first), BR1282", "description": "In a second PDX study, the same model was used as for the first study (TNBC BR1282 PDX model), but this time compound of formula (I) (8 mg/kg, i.v., qw, 5 mL/kg) was administered first and carboplatin (60 mg/kg, i.v., qw, 6 mL/kg) second using a 4 h gap between both administrations and compound of formula (I) was provided qw. Consequently, the mice received both compounds on the same day (4 h gap).\nas §1, §2, §3"}, "[3]": {"conditions": "comparator Formula (I) monotherapy"}}, "note": "Marks after values point to notes of the source that are not given here.", "data": [{"smiles": "N.N.O=C([O-])C1(C(=O)[O-])CCC1.[Pt+2]", "note": "[Carboplatin]", "values": [{"measurement": "ΔT/C", "setting": "SKOV-3 s.c. xenografts", "result": 0.72}, {"measurement": "Efficacy: ΔT/C Day 0 up to Day 31", "setting": "BR1282 TNBC PDX tumor [1]; based on mean rate of growth (k), formula (I) 7 mg/kg 2qw i.v., carboplatin 60 mg/kg qw i.v., carboplatin first", "result": "0.75*"}, {"measurement": "Mean difference of mean rate of growth (k), Formula (I) vs. treatment", "setting": "BR1282 TNBC PDX tumor [1]; [3]", "result": "−0.049"}, {"measurement": "Mean difference of mean rate of growth (k), Vehicle vs. treatment", "setting": "BR1282 TNBC PDX tumor [1]; comparator Vehicle, day 0 to latest day 31", "result": 0.0350}, {"measurement": "Efficacy: ΔT/C Day 10", "setting": "BR1282 TNBC PDX tumor [1]; mean change in tumor volume, formula (I) 7 mg/kg 2qw i.v., carboplatin 60 mg/kg qw i.v., carboplatin first", "result": 0.74}, {"measurement": "Tolerability (Day 10) ΔI/C", "setting": "BR1282 TNBC PDX tumor [1]; mean fractional body weight change vs vehicle (BWday10/BWday0)", "result": 0.97}, {"measurement": "Tolerability (Day 10) ΔBW (%)", "setting": "BR1282 TNBC PDX tumor [1]; mean ± SEM change in body weight, day 10", "result": "0.8 ± 1.2", "unit": "%"}, {"measurement": "Efficacy: ΔT/C Day 0 up to Day 17", "setting": "BR1282 TNBC PDX tumor [2]; based on mean rate of growth (k), formula (I) 8 mg/kg qw first, carboplatin 60 mg/kg qw 4 h later", "result": 0.96}, {"measurement": "k means, Mean difference, Formula (I) vs. treatment", "setting": "BR1282 TNBC PDX tumor [2]; [3]", "result": "−0.039"}, {"measurement": "Δ tumor volume on day 14, Mean difference, Formula (I) vs. treatment", "setting": "BR1282 TNBC PDX tumor [2]; [3]", "result": "−350.8"}, {"measurement": "k means, Mean difference, Vehicle vs. treatment", "setting": "BR1282 TNBC PDX tumor [2]; comparator Vehicle", "result": 0.007}, {"measurement": "Δ tumor volume on day 14, Mean difference, Vehicle vs. treatment", "setting": "BR1282 TNBC PDX tumor [2]; comparator Vehicle", "result": 71.5}, {"measurement": "Efficacy: ΔT/C Day 14", "setting": "BR1282 TNBC PDX tumor [2]; mean change in tumor volume, formula (I) 8 mg/kg qw i.v. first, carboplatin 60 mg/kg qw i.v. 4 h later", "result": 0.93}, {"measurement": "Tolerability (Day 14) ΔT/C", "setting": "BR1282 TNBC PDX tumor [2]; mean fractional body weight change vs vehicle (BWday14/BWday0)", "result": 1.00}, {"measurement": "Tolerability (Day 14) ΔBW (%)", "setting": "BR1282 TNBC PDX tumor [2]; mean ± SEM change in body weight, day 14", "result": "3.3 ± 2.6", "unit": "%"}]}]}
